Source: PMC4113814, “Bioactive Cembrane Derivatives from the Indian Ocean Soft Coral, Sinularia kavarattiensis” (Marine Drugs, 2014)
In brackets after ≈: the same amount, converted by molar mass.

Assays:
BHK-CHIKV-NCT cells [1] = test: Cytotoxicity assay by ATP quantitation (CellTiter GLO)
BHK-CHIKV-NCT cells [2] = test: Cell-IQ live cell imaging, cytotoxicity by cell classification (viable cells); settings: 48 h, control compounds
CHIKV replicon [3] = test: CHIKV replicon assay, Cell-IQ live cell imaging, EGFP fluorescence intensity; settings: 48 h; for decrease in EGFP marker fluorescence intensity: 50 and 100 μM
CHIKV replicon [4] = test: microbe, parasite or virus in culture; settings: Chikungunya virus; for inhibition at 100 µM: 48 h, read-out: inhibition of the CHIKV replicon (Rluc marker levels)
[5] = MTT cytotoxicity assay on primary microglial cell cultures; assay type: cell-based, Wistar rats; settings: Wistar, rat, mean of triplicate
Experimental: (§1) Primary microglial cell cultures were prepared from brains of newborn Wistar rats. Ethics approval for the experiments was granted by the EBIOTEC Review Board (Valter Lombardi, Iván Carrera and Lucía Fernández-Novoa; Project Identification Code: Sinularia Project October 2013; approved 30 October 2013). The neocortex of one-day-old postnatal rats was aseptically dissected out, and the meninges and blood vessels were carefully removed. Following cutting in a medium containing 20% horse serum, the suspension was filtered through a […] and transferred as a single cell suspension to culture dishes, using 5.0 mL of medium per dish. The cultures were incubated at 37 °C in an atmosphere containing 5% CO2. The culture medium consisted of Minimum Essential Medium Eagle, supplemented with L-glutamine, amino acids, vitamins, penicillin, gentamicin, sodium bicarbonate and 20% heat-inactivated horse serum. The medium was changed twice a week. After 1 week, the concentration of horse serum was reduced to 10%. After sixteen days in culture, cells were treated with 1 μg/mL of lipopolysaccharide (LPS). After six hours, different concentrations (1.0 μg/mL, 2.5 μg/mL and 5.0 μg/mL) of Compounds 1–4 and 6 were added to each well, and plates were incubated for 72 h at 37 °C in an atmosphere containing 5% CO2. Positive controls were treated only with LPS, while negative controls were treated with complete medium. After 72 h of incubation, cells were counted, and 2.5 mL of the supernatants were collected from each well and frozen at −40 °C for cytokine analyses. All experiments were carried out twice.
(§2) The cytotoxicity of the compounds was measured by the colorimetric methyl thiazol tetrazolium (MTT) assay and scored as a percentage of the absorbance reduction of treated cultures versus untreated control cultures. Primary microglial cell cultures were seeded into 96-well microplates at 10^4 cells per well and allowed to grow for 24 h. The initial concentration of Compounds 1–4 and 6 was 100 μg/mL in DMSO. The compounds were serially diluted in complete culture medium with two-fold dilutions (100, 50, 25, 12.5, 6.25, 3.12 and 1.56 μg/mL for in vitro cytotoxicity; 12.5, 6.25, 3.12, 1.56, 0.78 and 0.39 μg/mL for cytokine release). Different concentrations of the compounds were added to each well, and Tamoxifen was used as a positive control, with concentrations ranging from 50 to 1.56 μg/mL. Plates were incubated at 37 °C for 72 h under 5% CO2 atmosphere. Then, the 50 μL of MTT-PBS solution in culture medium were added to each well. The plates were further incubated for 4 h under the same conditions. The medium was then removed and replaced with 200 μL of DMSO to solubilize the MTT formazan product. The solutions were shaken for 20 min, and the absorbance was measured at 570 nm. […] Each value represents the mean of triplicate determinations. The IC50 values were calculated from the compound concentration-response curves.

IL-8 = IL-8 release in supernatants of LPS-treated primary microglial cells (ELISA); assay type: cell-based, Wistar rats; settings: 72 h; for IL-8 release: LPS-treated
Experimental: as §1, with “After six hours, different concentrations (1.0 μg/mL, 2.5 μg/mL and 5.0 μg/mL) of Compounds 1–4 and 6 were added to each well, and plates were incubated for 72 h at 37 °C in an atmosphere containing 5% CO2.” left out
(§3) The supernatants obtained from cell cultures were analyzed for TNF-α, IL-1β, IL-4, IL-6, IL-8, IL-10 and IL-18 using commercially available ELISA kits following the manufacturers’ instructions. All samples were assayed in duplicate, and equivocal results were repeated. The cytokine concentration was calculated from a standard curve of the corresponding recombinant cytokine.
as §2, with “The initial concentration of Compounds 1–4 and 6 was 100 μg/mL in DMSO.” left out

IL-1β = IL-1β release in supernatants of LPS-treated primary microglial cells (ELISA); assay type: cell-based, Wistar rats; settings: 72 h; for IL-1β release: LPS-treated
Experimental: as §1, with “After six hours, different concentrations (1.0 μg/mL, 2.5 μg/mL and 5.0 μg/mL) of Compounds 1–4 and 6 were added to each well, and plates were incubated for 72 h at 37 °C in an atmosphere containing 5% CO2.” left out
as §3
as §2, with “The initial concentration of Compounds 1–4 and 6 was 100 μg/mL in DMSO.” left out

IL-18 = IL-18 release in supernatants of LPS-treated primary microglial cells (ELISA); assay type: cell-based, Wistar rats; settings: 72 h; for IL-18 release: LPS-treated
Experimental: as §1, with “After six hours, different concentrations (1.0 μg/mL, 2.5 μg/mL and 5.0 μg/mL) of Compounds 1–4 and 6 were added to each well, and plates were incubated for 72 h at 37 °C in an atmosphere containing 5% CO2.” left out
as §3
as §2, with “[…] […]” for “The initial concentration of Compounds 1–4 and 6 was 100 μg/mL in DMSO. The compounds were serially diluted in complete culture medium with two-fold dilutions (100, 50, 25, 12.5, 6.25, 3.12 and 1.56 μg/mL for in vitro cytotoxicity; 12.5, 6.25, 3.12, 1.56, 0.78 and 0.39 μg/mL for cytokine release).”

IL-6 = IL-6 release in supernatants of LPS-treated primary microglial cells (ELISA); assay type: cell-based, Wistar rats; settings: 72 h; for IL-6 release: LPS-treated
Experimental: as §1, with “After six hours, different concentrations (1.0 μg/mL, 2.5 μg/mL and 5.0 μg/mL) of Compounds 1–4 and 6 were added to each well, and plates were incubated for 72 h at 37 °C in an atmosphere containing 5% CO2.” left out
as §3
as §2, with “The initial concentration of Compounds 1–4 and 6 was 100 μg/mL in DMSO.” left out

IL-10 = IL-10 release in supernatants of LPS-treated primary microglial cells (ELISA); assay type: cell-based, Wistar rats; settings: 72 h; for IL-10 release: LPS-treated
Experimental: as §1, with “After six hours, different concentrations (1.0 μg/mL, 2.5 μg/mL and 5.0 μg/mL) of Compounds 1–4 and 6 were added to each well, and plates were incubated for 72 h at 37 °C in an atmosphere containing 5% CO2.” left out
as §3
as §2, with “The initial concentration of Compounds 1–4 and 6 was 100 μg/mL in DMSO.” left out

TNF-α = TNF-α release in supernatants of LPS-treated primary microglial cells (ELISA); assay type: cell-based, Wistar rats; settings: 72 h; for TNF-α release: LPS-treated
Experimental: as §1, with “After six hours, different concentrations (1.0 μg/mL, 2.5 μg/mL and 5.0 μg/mL) of Compounds 1–4 and 6 were added to each well, and plates were incubated for 72 h at 37 °C in an atmosphere containing 5% CO2.” left out
as §3
as §2, with “The initial concentration of Compounds 1–4 and 6 was 100 μg/mL in DMSO.” left out

IL-4 = IL-4 release in supernatants of LPS-treated primary microglial cells (ELISA); assay type: cell-based, Wistar rats; settings: 72 h; for IL-4 release: LPS-treated
Experimental: as §1, with “After six hours, different concentrations (1.0 μg/mL, 2.5 μg/mL and 5.0 μg/mL) of Compounds 1–4 and 6 were added to each well, and plates were incubated for 72 h at 37 °C in an atmosphere containing 5% CO2.” left out
as §3
as §2, with “[…] […]” for “The initial concentration of Compounds 1–4 and 6 was 100 μg/mL in DMSO. The compounds were serially diluted in complete culture medium with two-fold dilutions (100, 50, 25, 12.5, 6.25, 3.12 and 1.56 μg/mL for in vitro cytotoxicity; 12.5, 6.25, 3.12, 1.56, 0.78 and 0.39 μg/mL for cytokine release).”

Molecule: polymyxin B [reference compound]
- average toxicity (BHK-CHIKV-NCT cells [1]; 10,000 IU/mL): 93%
- ED50 for the cytotoxic activity (BHK-CHIKV-NCT cells [1]; positive control): 5900 IU/mL
- effect of control compound on number of viable cells / cell morphology (BHK-CHIKV-NCT cells [2]): radically decreases

Molecule: O=c1cnn([C@@H]2O[C@H](CO)[C@@H](O)[C@H]2O)c(=O)[nH]1 [Compound 6-azauridine, 6-azauridine, reference compound]
- effect of control compound on fluorescence intensity (CHIKV replicon [3]; control compounds): decreases the fluorescence intensity
- IC50 (CHIKV replicon [4]; read-out: IC50, inhibition of replicon (Rluc detection)): 2 µM
- inhibition at 10 µM (CHIKV replicon [4]; read-out: average inhibition (Rluc)): 69%
- effect of control compound on number of viable cells / cell morphology (BHK-CHIKV-NCT cells [2]): without affecting cell morphology

Molecule: CC/C(=C(\c1ccccc1)c1ccc(OCCN(C)C)cc1)c1ccccc1 [Tamoxifen, reference compound]
- IC50 at 72 h [5]: 3.6 µg/mL (≈ 9.69 µM)

Molecule: C=C1/C=C/[C@H](C(C)C)CCC(=C)[C@H](O)CC1 [Compound 5, ent-germacra-4(15),5E,10(14)-trien-1β-ol]
- decrease in EGFP marker fluorescence intensity (CHIKV replicon [3]): only moderate decreases
- inhibition at 100 µM (CHIKV replicon [4]): 0.5 to 63%

Molecule: C=C(C)[C@@H]1C/C=C(\C(=O)OC)CC(=O)C[C@]2(C)CC(=O)[C@H](CC(=O)C1)O2 [Compound 4]
- IC50 at 72 h [5]: > 100 µg/mL
- IL-8 release (IL-8; C2: 2.5 μg/mL): 247 ± 8 pg/mL
- IL-8 release (IL-8; C3: 5.0 μg/mL): 247 ± 8 pg/mL
- IC50 (IL-8; Rattus norvegicus, read-out: IL-8 IC50): > 12.5 µg/mL
- IL-1β release (IL-1β; C1: 1.0 μg/mL): 1.01 ± 0.04 pg/mL
- IL-1β release (IL-1β; C2: 2.5 μg/mL): 1.02 ± 0.04 pg/mL
- IL-1β release (IL-1β; C3: 5.0 μg/mL): 1.01 ± 0.02 pg/mL
- IC50 (IL-1β; Rattus norvegicus, read-out: IL-1β IC50): > 12.5 µg/mL
- IL-18 release (IL-18; C2: 2.5 μg/mL): 312 ± 8.2 pg/mL
- IL-18 release (IL-18; C3: 5.0 μg/mL): 312 ± 8.2 pg/mL
- IC50 (IL-18; Rattus norvegicus, read-out: IL-18 IC50): > 12.5 µg/mL
- IL-6 release (IL-6; C1: 1.0 μg/mL): 12.1 ± 1.3 pg/mL
- IL-6 release (IL-6; C2: 2.5 μg/mL): 14.1 ± 1.1 pg/mL
- IL-6 release (IL-6; C3: 5.0 μg/mL): 12.1 ± 1.3 pg/mL
- IC50 (IL-6; Rattus norvegicus, read-out: IL-6 IC50): > 12.5 µg/mL
- IL-10 release (IL-10; C1: 1.0 μg/mL): 8.4 ± 2.6 pg/mL
- IL-10 release (IL-10; C2: 2.5 μg/mL): 7.9 ± 2.5 pg/mL
- IL-10 release (IL-10; C3: 5.0 μg/mL): 7.8 ± 3.2 pg/mL
- IC50 (IL-10; Rattus norvegicus, read-out: IL-10 IC50): > 12.5 µg/mL
- TNF-α release (TNF-α; C1: 1.0 μg/mL): 33.2 ± 2.8 pg/mL
- TNF-α release (TNF-α; C2: 2.5 μg/mL): 29.8 ± 2.5 pg/mL
- TNF-α release (TNF-α; C3: 5.0 μg/mL): 32.5 ± 3.7 pg/mL
- IC50 (TNF-α; Rattus norvegicus, read-out: TNF-α IC50): > 12.5 µg/mL
- IL-4 release (IL-4; C1: 1.0 μg/mL): 2.2 ± 0.2 pg/mL
- IL-4 release (IL-4; C2: 2.5 μg/mL): 2.3 ± 0.5 pg/mL
- IL-4 release (IL-4; C3: 5.0 μg/mL): 1.8 ± 0.2 pg/mL
- IC50 (IL-4; Rattus norvegicus, read-out: IL-4 IC50): > 12.5 µg/mL

Molecule: C=C(C)C1CC(=O)C2C3C(=O)CC(C=C3C(C)=O)C(C(=O)O)C2C1 (stereo not drawn) [Compound 7, kavaranolide]
- decrease in EGFP marker fluorescence intensity (CHIKV replicon [3]): only moderate decreases
- inhibition at 100 µM (CHIKV replicon [4]): 0.5 to 63%
